Reference: US20030207933A1, “Compositions and methods for increasing the sensitivity of apoptosis-resistant tumor cells to inducers of apoptosis” (priority 2002, published 2003)

Tests used:
LY-ar cells = experiment: Radiation-induced DNA fragmentation in LY-ar cells; format: cell-based, murine; details: γ-radiation in the presence of W-188; FIG. 10
Procedure: Additional studies were performed to determine if W-188 could also sensitize cells that naturally express high levels of Bcl-2. Clones were isolated from the murine B cell lymphoma, LY, that naturally express low levels of Bcl-2 (LY-as) or high levels (LY-ar), as described previously (Mirkovic, N., et al., Oncogene, 1997, 15:1461).
(§1) LY-ar was highly resistant to apoptosis induced by y-radiation. […] The apparent selective effects of W-188 may be due to the preferential intracellular accumulation of porphyrin compounds in transformed cells as opposed to normal cells reported previously (Bugelski, P. J., et al., Cancer Res., 1981, 41:4606).

[1] = tested on: Wehi-Hsp70 fibrosarcoma cells; experiment: 20 h DNA fragmentation assay in Wehi cells overexpressing Hsp70; format: cell-based, murine; details: etoposide + 20 μM W-188, FIG. 8
Procedure: This finding was confirmed using the Wehi murine fibrosarcoma cell line that is transfected with and overexpresses Hsp70, as described previously (Jaattela, M., et al., EMBO J. 1998, 17:6124). Wehi transfected with Hsp70 or vector control were cultured with etoposide ±20 μM W-188 in a 20 h DNA fragmentation assay.

P3X63Ag8.653 (P3X) cells = experiment: Drug-induced DNA fragmentation in Bcl-XL-overexpressing myeloma cells; format: cell-based, murine; details: W-188 0.1 μg/mL; etoposide, chlorambucil, YW-200; 24 h; FIG. 5
Procedure: It has been reported that the murine myeloma, SP2/0, is highly sensitive to cycloheximide-induced apoptosis, whereas the related murine myeloma, P3X63Ag8.653 (P3X), was resistant (Gauthier, E. R., et al., Cancer Res., 1996, 56:1451). This resistance was attributed to natural high levels of expression of Bcl-XL in the absence of any detectable Bcl-2. In contrast, SP2 expressed neither Bcl-2 or Bcl-XL. Thus, normal (SP2) or Bcl-XL-overexpressing cells (P3X) were treated with chemotherapeutic drugs ±0.1 μg/ml W-188. After 24 h, % DNA fragmentation was measured by release of ^3H-labeled DNA fragments.
P3X was relatively resistant to DNA fragmentation induced by three chemotherapeutic drugs, etoposide, chlorambucil, and YW-200, relative to SP2 (FIG. 5). YW-200 is an experimental DNA-binding chemotherapeutic drug related to CC-1065 (Wang, Y., et al., U.S. Pat. No. 5,843,937, 1998).

RIF-1 fibrosarcoma = RIF-1 fibrosarcoma tumor growth in vivo; set-up: species or system mice; details: for Effect on tumor growth: five i.p. injections
Source text: The present study tested in the ability of W-188 to synergize with Dox and inhibit tumor growth in vivo. The RIF-1 fibrosarcoma model was used because this model has been well-characterized, and naturally expresses high Bcl-2 levels and has a consistent growth pattern (Nahabedian, M. Y., et al., J. Natl. Can. Inst., 1988, 80:739; Chang, M-J., et al., Cancer Res., 1994, 54:5380; Srivastana, M., et al., J. Biol. Chem., 2001, 276:15481).
Groups of five mice each were inoculated s.c. with RIF-1 cells. The tumors were allowed to grow for 12 days to a size of 0.5 cm diameter, which was designated day 0. The mice were then given five i.p. injections every other day with vehicle, Dox 2.5 mg/kg, Dox 5.0 mg/kg, W-188 100 mg/kg, and Dox 5.0 mg/kg+W-188 100 mg/kg. The mice were weighed and the tumor size measured every day.
The protocol was similar to that described for the W-188 experiment in Example 8, except that in this study, mice with established tumors received only three injections of W-143 or Dox every other day starting on day 0.

[2] = tested on: Normal human venous endothelial cells; experiment: Cytotoxicity to normal venous endothelial cells (MTT dye reduction assay); format: cell-based
[3] = as above; format: cell-based, human; details: human, normal venous endothelial cells, 6 h
mice = experiment: Histopathological analysis of internal organs after xenograft treatment; format: in vivo, nude mice; details: radiation + W-188 200 mg/kg; thirty days after treatment
Procedure: Thirty days after treatment, three mice that were given radiation+W-188 200 mg/kg (the optimal treatment in this experiment) were sacrificed and internal organs removed and processed for histopathological analysis by a board-certified pathologist at a commercial lab.

[4] = tested on: normal rat intestinal epithelial cells; experiment: Toxic effects of etoposide on normal intestinal epithelial cells; format: cell-based
Source text: as §1

Ramos B lymphoma cells = experiment: Dox cytotoxicity by trypan blue exclusion in Ramos cells; format: cell-based; details: 24 hr
Procedure: In the present study, the sensitizing activity of W-188 and W-143 was tested in the Raji and Ramos cell lines. Since these two human B lymphoma lines naturally express high levels of anti-apoptotic Bcl-2 proteins, they may be more clinically relevant than the transfected HL-60-Bcl-2 line.
The sensitizing effects of W-143 and W-188 were first tested on these lines in vitro. […] Ramos cells were cultured with different concentrations of Dox with and without W-143 or W-188 at 20 μg/ml for 24 hr, and then viability assessed microscopically by counting at least 100 cells.

HL-60-Bcl-2 xenograft = HL-60-Bcl-2 xenograft growth in nude mice; format: in vivo; details: single dose
Procedure: Groups of five nude mice were injected s.c. with 5×10^6 HL-60-Bcl-2 cells, and tumors allowed to grow to a size of 7-10 mm. Tumors were then exposed to a single dose of γ-radiation, a single dose of W-188 or vehicle control, or a single dose of both γ-radiation and W-188. Tumor growth was monitored every other day, and when the tumor volume increased four fold, the animals were sacrificed.

Which “Radiation-induced DNA fragmentation” value (LY-ar cells) does the source give for `CCC1=C(C)C(/C=C2\NC(=O)C(C)=C2CC)=NC/1=C\c1[nH]c(/C=C2\NC(=O)C(C)=C2CC)c(C)c1CC` [W-188, etiobiliverdin-IV] here?
Its value is “underwent DNA fragmentation at levels equal to or exceeding that of LY-as treated with radiation”.

What about the “Etoposide-induced DNA fragmentation” value [1] of the same compound?
Its value is “underwent DNA fragmentation at levels comparable to that observed with the Wehi-vector control”.

What about the “Sensitization to drug-induced DNA fragmentation” value (P3X63Ag8.653 (P3X) cells) of the same compound?
Its value is “sensitized P3X to undergo drug-induced DNA fragmentation at levels close to or equal to those of SP2”.

And the “Effect on tumor growth” value (RIF-1 fibrosarcoma; W-188 100 mg/kg + Dox 5.0 mg/kg)?
The value was “synergistically inhibited tumor growth”.

What about the “Tumor size relative to vehicle control” value (RIF-1 fibrosarcoma; W-188 100 mg/kg + Dox 5.0 mg/kg, day 12, p=0.0005) of the same compound?
The value was “only half the size of the vehicle control”.

And the “Effect on tumor growth” value (RIF-1 fibrosarcoma; W-188 100 mg/kg alone, data not shown)?
Its value is “no effect on tumor growth”.

What about the “Effect on toxic effects of etoposide on normal cells” value [2] of the same compound?
Its value is “did not increase the toxic effects of etoposide”.

And the “Augmentation of killing of endothelial cells by etoposide or YW-200” value ([2]; W-188 at concentrations as high as 50 μg/mL)?
Its value is “did not augment the killing of endothelial cells by etoposide or YW-200”.

What about the cytotoxicity at 6 h, 25 μg/mL ([3]; W-188 25 μg/mL, etoposide 0 μM) of the same compound?
Its cytotoxicity at 6 h, 25 μg/mL is 7 ± 1.5%.

And the cytotoxicity at 6 h, 50 μg/mL ([3]; W-188 50 μg/mL, etoposide 0 μM)?
The cytotoxicity at 6 h, 50 μg/mL was 22 ± 2%.

And the cytotoxicity at 6 h, 25 μg/mL ([3]; YW-200 0.01 μM + W-188 25 μg/mL)?
The cytotoxicity at 6 h, 25 μg/mL was 38 ± 4.9%.

And the cytotoxicity at 6 h, 50 μg/mL ([3]; YW-200 0.01 μM + W-188 50 μg/mL)?
The cytotoxicity at 6 h, 50 μg/mL was 59 ± 2.2%.

What about the cytotoxicity at 6 h, 25 μg/mL ([3]; etoposide 100 μM + W-188 25 μg/mL) of the same compound?
The cytotoxicity at 6 h, 25 μg/mL was 11 ± 1.5%.

What about the cytotoxicity at 6 h, 50 μg/mL ([3]; etoposide 100 μM + W-188 50 μg/mL) of the same compound?
Its cytotoxicity at 6 h, 50 μg/mL is 21 ± 1.6%.

What about the “Histopathology of heart, lung, liver, spleen, kidney, stomach, intestine” value (mice) of the same compound?
Its value is “All tissues examined were found to be normal”.

And the “Effect on toxic effects of etoposide on normal cells” value [4]?
Its value is “did not increase the toxic effects of etoposide”.

And the “Toxicity of compound alone” value (Ramos B lymphoma cells; 20 μg/ml, no Dox)?
The value was “completely nontoxic”.

And the “Increase of cytotoxicity mediated by Dox” value (Ramos B lymphoma cells; compound 20 μg/ml + Dox, FIG. 6)?
The value was “over two fold”.

What about the “Effect on tumor growth” value (HL-60-Bcl-2 xenograft; W-188 200 mg/kg alone) of the same compound?
The value was “no significant effect”.

And the “Effect on tumor growth” value (HL-60-Bcl-2 xenograft; W-188 400 mg/kg alone, p=0.005)?
Its value is “significantly inhibited tumor growth”.

And the “Effect on tumor growth” value (HL-60-Bcl-2 xenograft; γ-radiation + W-188 200 mg/kg, p=0.006)?
Its value is “even greater inhibition of tumor growth compared to radiation alone”.
